Legend:
[1] = system: Sporothrix schenckii; assay: Antifungal activity against Sporothrix schenck ii; format: functional
[2] = system: Saprolegnia; assay: Antifungal activity against Saprolegnia species; format: functional
[3] = system: Trichophyton benhamiae; assay: Antifungal activity against Trichophyton mentagrophytes; format: functional, trychophyton mentagrophytes
[4] = system: Candida tropicalis; assay: Antifungal activity against Candida tropicalis; format: functional
[5] = system: Cryptococcus neoformans; assay: Antifungal activity against Cryptococcus neoformans; format: functional
[6] = system: Mucor; assay: Antifungal activity against Mucor species; format: functional
[7] = system: Phialophora verrucosa; assay: Antifungal activity against Phialophora verrucosa; format: functional
[8] = system: Streptococcus pyogenes; assay: Antibacterial activity against Streptococcus pyogenes; format: functional
[9] = Ratio of animals cured to that of animals […], Tested in vivo for antifungal activity against vaginal candidosis in rat; 0/2; format: functional
[10] = system: Staphylococcus haemolyticus; assay: Antibacterial against Staphylococcus hemolyticus; format: functional
[11] = system: Microsporum canis; assay: Antifungal activity against Microsporum canis; format: functional
[12] = system: Aspergillus fumigatus; assay: Antifungal activity against Aspergillus fumigatus; format: functional
[13] = system: Trichophyton rubrum; assay: Antifungal activity against Trichophyton rubrum; format: functional
[14] = system: Candida albicans; assay: Antifungal activity against Candida albicans; format: functional
[15] = system: Erysipelothrix rhusiopathiae; assay: Antibacterial activity against Erysipelothrix insidiosa; format: functional
[16] = Ratio of animals cured to that of animals infected, tested in vivo for antifungal activity against vaginal candidosis in rat; 0/2; note: test concentration or dose not given here
[17] = Ratio of animals cured to that of animals infected, tested in vivo for antifungal activity against cutaneous candidosis in guinea pig; 0/2; format: functional; note: test concentration or dose not given here
Throughout, for Ratio: test concentration or dose not given here.

SMILES | Inhibition [1] | Inhibition [2] | Inhibition [3] | Inhibition [4] | Inhibition [5] | Inhibition [6] | Inhibition [7] | Inhibition [8] | Ratio [9] | Inhibition [10] | Inhibition [11] | Inhibition [12] | Inhibition [13] | Inhibition [14] | Inhibition [15] | Ratio [16] | Ratio [17]
Cc1ccc(C2COC(Cn3ccnc3)(c3ccc(Cl)cc3)O2)cc1 (centres undefined) | 10 µg/mL | 100 µg/mL | <1 µg/mL | >100 µg/mL | <1 µg/mL | 100 µg/mL | 100 µg/mL | <1 µg/mL | 0 | 100 µg/mL | <1 µg/mL | <1 µg/mL | <1 µg/mL | 100 µg/mL | <1 µg/mL |  | 
COc1ccc(CC2COC(Cn3ccnc3)(c3ccc(Cl)cc3Cl)O2)cc1 (centres undefined) |  | 10 µg/mL | <1 µg/mL |  |  |  | 10 µg/mL | <1 µg/mL | 0 | 100 µg/mL | <1 µg/mL |  |  |  |  |  | 
Brc1ccc(C2COC(Cn3ccnc3)(c3ccc(Br)cc3)O2)cc1 (centres undefined) | 10 µg/mL | 100 µg/mL | <1 µg/mL | 100 µg/mL | <1 µg/mL | 10 µg/mL | 100 µg/mL | <1 µg/mL |  | 10 µg/mL | <1 µg/mL | <1 µg/mL | <1 µg/mL | >100 µg/mL | <1 µg/mL | 0 | 0
Cc1ccc(CC2COC(Cn3ccnc3)(c3ccc(Cl)cc3Cl)O2)cc1 (centres undefined) | 10 µg/mL | 10 µg/mL | <1 µg/mL | >100 µg/mL | <1 µg/mL | 10 µg/mL | 100 µg/mL | <1 µg/mL | 0 | <1 µg/mL | <1 µg/mL | 10 µg/mL | <1 µg/mL | 10 µg/mL | <1 µg/mL |  | 
Fc1ccc(CC2COC(Cn3ccnc3)(c3ccc(Cl)cc3Cl)O2)cc1 (centres undefined) | 10 µg/mL | 10 µg/mL | <1 µg/mL | 100 µg/mL | 10 µg/mL | <1 µg/mL | 100 µg/mL | 10 µg/mL | 0 | 10 µg/mL | <1 µg/mL | 10 µg/mL | <1 µg/mL | 100 µg/mL | <1 µg/mL |  | 
Clc1ccc(C2(Cn3ccnc3)OCC(CCc3ccc(-c4ccccc4)cc3)O2)c(Cl)c1 (centres undefined) | 10 µg/mL | 10 µg/mL | <1 µg/mL | >100 µg/mL | 10 µg/mL | >100 µg/mL | >100 µg/mL | <1 µg/mL | 0 | 100 µg/mL | <1 µg/mL | 10 µg/mL | <1 µg/mL | >100 µg/mL | <1 µg/mL |  | 
Clc1ccccc1C1COC(Cn2ccnc2)(c2ccc(Br)cc2)O1 (centres undefined) | 10 µg/mL | 100 µg/mL | <1 µg/mL | >100 µg/mL | <1 µg/mL | 10 µg/mL | 100 µg/mL | 10 µg/mL |  | 100 µg/mL | <1 µg/mL | 100 µg/mL | <1 µg/mL | 100 µg/mL | <1 µg/mL | 0 | 0
